Values after ≈ are worked out from the molar mass of the structure shown.
Assays:
[1] = system: S. aureus (ATCC29213); assay: In vitro susceptibility, broth microdilution (MIC); format: cell-based; settings: Staphylococcus aureus; S. aureus ATCC29213; 18-24 h, 37 C; read-out: Antimicrobial activity (MIC) S. aureus ATCC29213
Outline: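 CLSI 2-fold serial broth microdilution; K. pneumoniae C238 grown in L-broth, S. aureus ATCC 29213 in Mueller Hinton broth, plates incubated 18–24 h at 37 °C. MIC taken as lowest concentration giving complete growth inhibition by OD600 versus compound-free wells, background-subtracted.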

[2] = system: MRSA (ATCC BAA-1762); assay: In vitro susceptibility, broth microdilution (MIC); format: cell-based, methicillin resistant S. aureus; settings: Staphylococcus aureus; MRSA ATCC BAA-1762; read-out: Antimicrobial activity (MIC) MRSA ATCC BAA1762
Outline: (§1)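 MIC determined by CLSI 2-fold broth microdilution in cation-adjusted Mueller–Hinton broth at ~2.5×10^5 CFU/ml, final compound 0.031–64 μg/ml, 18–24 h at 37 °C. MIC is the lowest concentration giving complete growth inhibition by background-corrected OD600 versus compound-free wells; duplicate or triplicate wells, replicated at least twice.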

[3] = system: VRE#2 (2010A); assay: In vitro susceptibility, broth microdilution (MIC); format: cell-based, vancomycin resistant Enterococci; settings: VRE#2 (2010A); read-out: Antimicrobial activity (MIC) VRE#2
Outline: as §1

[4] = system: A. baumannii (ATCC 17978); assay: In vitro susceptibility, broth microdilution (MIC); format: cell-based; settings: Acinetobacter baumannii, ATCC17978; A. baumannii ATCC 17978 (values marked *); read-out: Antimicrobial activity (MIC) A. baumannii
Outline: as §1

[5] = target: T1, MRSA Pyk (Staphylococcus aureus, UniProt Q6GG09); assay: MRSA pyruvate kinase (PK) activity, continuous LDH-coupled assay; format: biochemical, methicillin resistant S. aureus (MRSA252)
T1 construct: made in house; host or cells: E. coli BL-21 (DE3)
T1 sequence (Q6GG09 whole entry): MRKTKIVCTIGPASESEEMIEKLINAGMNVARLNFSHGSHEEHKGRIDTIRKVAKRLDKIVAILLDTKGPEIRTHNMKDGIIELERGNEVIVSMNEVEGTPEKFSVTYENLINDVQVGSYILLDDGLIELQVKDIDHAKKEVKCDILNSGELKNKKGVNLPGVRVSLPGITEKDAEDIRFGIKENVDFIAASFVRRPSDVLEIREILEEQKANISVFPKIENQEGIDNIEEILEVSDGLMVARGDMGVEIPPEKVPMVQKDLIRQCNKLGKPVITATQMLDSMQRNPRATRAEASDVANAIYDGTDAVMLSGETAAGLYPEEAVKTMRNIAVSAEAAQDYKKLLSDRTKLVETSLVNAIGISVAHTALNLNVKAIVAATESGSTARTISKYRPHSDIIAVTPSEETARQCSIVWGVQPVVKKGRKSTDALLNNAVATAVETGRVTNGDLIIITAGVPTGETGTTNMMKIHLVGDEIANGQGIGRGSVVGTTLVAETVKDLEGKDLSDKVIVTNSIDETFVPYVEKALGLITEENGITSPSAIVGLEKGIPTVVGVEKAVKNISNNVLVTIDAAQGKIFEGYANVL
Outline: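 Activity monitored continuously as absorbance change at 340 nm from NADH oxidation via coupled lactate dehydrogenase, reactions started with 15 nM recombinant His-tagged PK (MRSA or human isoform) and run at 30° C for up to 5 min. Ki derived by varying inhibitor (0-400 nM) and PEP (2-20 mM) at 2 mM ADP; IC50 by four-parameter fitting.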

SMILES | MIC [1] | MIC [2] | MIC [3] | MIC [4] | IC50 [5]
O=C(NCc1ccccc1)Nc1nc2cc(Br)ccc2s1 [Compound 158, 1-benzyl-3-(5-bromobenzo[d]thiazol-2-yl)urea] | 2 µg/mL (≈ 5.52 µM) | 1 µg/mL (≈ 2.76 µM) | 2 µg/mL (≈ 5.52 µM) | > 64 µg/mL | –
COCC(=O)N1CCCN(CCNC(=O)c2c(-c3cc4cc(Cl)ccc4[nH]3)[nH]c3cc(Br)ccc23)CC1 [Compound 121, 6-Bromo-5′-chloro-N-(2-(4-(2-methoxyacetyl)-1,4-diazepan-1-yl)ethyl)-1H,1′H-[2,2′-biindole]-3-carboxamide] | > 64 µg/mL | – | – | > 64 µg/mL | < 100 nM
CC(C)[C@@H](C(=O)OCCCNC(=O)c1c(-c2cc3cc(Cl)ccc3[nH]2)[nH]c2cc(Br)ccc12)N(C)C [Compound 185, 3-(6-Bromo-5′-chloro-1H,1′H-[2,2′-biindole]-3-carboxamido)propyl Dimethyl-L-valinate] | > 64 µg/mL | – | – | > 64 µg/mL | < 100 nM
CN(C)c1cc[n+](CCCNC(=O)c2c(-c3cc4cc(Cl)ccc4[nH]3)[nH]c3cc(Br)ccc23)cc1 [Compound 145, 1-(3-(6-bromo-5′-chloro-1H, 1′H-[2,2′-biindole]-3-carboxamido)propyl)-4-(dimethylamino)pyridin-1-ium] | 8 µg/mL | 16 µg/mL | 16 µg/mL | > 64 µg/mL | < 100 nM
O=C(COc1cc2[nH]c(-c3cc4ccc(Br)cc4[nH]3)cc2cc1Cl)NCCC[n+]1ccccc1 [Compound 190, 1-(3-(2-((6′-Bromo-5-chloro-1H,1′H-[2,2′-biindol]-6-yl)oxy)acetamido)propyl)pyridin-1-ium Acetate] | 8 µg/mL | 8 µg/mL | 16 µg/mL | > 64 µg/mL | < 100 nM
O=C(NCCc1ccncc1)c1c(-c2cc3cc(Cl)ccc3[nH]2)[nH]c2cc(Br)ccc12 [Compound 142, 6-bromo-5′-chloro-N-(2-(pyridin-4-yl)ethyl)-1H,1′H-[2,2′-biindole]-3-carboxamide] | > 64 µg/mL | – | – | > 64 µg/mL | < 100 nM
O=C(Nc1ccc(Cl)c(C(F)(F)F)c1)Nc1nc2cc(Br)ccc2s1 [Compound 156, 1-(5-bromobenzo[d]thiazol-2-yl)-3-(4-chloro-3-(trifluoromethyl)phenyl)urea] | 0.5 µg/mL (≈ 1.11 µM) | 1 µg/mL (≈ 2.22 µM) | 1 µg/mL (≈ 2.22 µM) | 64 µg/mL (≈ 142 µM) | –
O=C(NCCN1CCC[C@H]1C(=O)O)c1c(-c2cc3cc(Cl)ccc3[nH]2)[nH]c2cc(Br)ccc12 [Compound 125, (2-(6-Bromo-5′-chloro-1H,1′H-[2,2′-biindole]-3-carboxamido)ethyl)-L-proline] | > 64 µg/mL | – | – | > 64 µg/mL | < 100 nM
O=C1CN(CCNC(=O)c2c(-c3cc4cc(Cl)ccc4[nH]3)[nH]c3cc(Br)ccc23)CCN1 [Compound 127, 6-bromo-5′-chloro-N-(2-(3-oxopiperazin-1-yl)ethyl)-1H,1′H-2,2′-biindole-3-carboxamide] | > 64 µg/mL | – | – | > 64 µg/mL | < 100 nM
CN(C)CCc1c(-c2nc3cc(Cl)c(Cl)cc3[nH]2)[nH]c2cc(Br)ccc12 [Compound 202, 2-(6-Bromo-2-(5,6-dichloro-1H-benzo[d]imidazol-2-yl)-1H-indol-3-yl)-N,N-dimethylethan-1-amine] | 4 µg/mL (≈ 8.85 µM) | 4 µg/mL (≈ 8.85 µM) | 4 µg/mL (≈ 8.85 µM) | > 64 µg/mL | < 100 nM
COc1cc2sc(NC(=O)Nc3ccccc3)nc2cc1Br [Compound 153, 1-(5-bromo-6-methoxybenzo[d]thiazol-2-yl)-3-phenylurea] | > 64 µg/mL | – | – | > 64 µg/mL | –
O=C(NCCN1CCNCC1=O)c1c(-c2cc3cc(Cl)ccc3[nH]2)[nH]c2cc(Br)ccc12 [Compound 143, 6-bromo-5′-chloro-N-(2-(2-oxopiperazin-1-yl)ethyl)-1H,1′H-[2,2′-biindole]-3-carboxamide] | > 64 µg/mL | – | – | > 64 µg/mL | –
COc1ccc(NC(=O)Nc2nc3cc(Br)ccc3s2)cc1 [Compound 152, 1-(5-bromobenzo[d]thiazol-2-yl)-3-(4-methoxyphenyl)urea] | 1 µg/mL (≈ 2.64 µM) | 1 µg/mL (≈ 2.64 µM) | 2 µg/mL (≈ 5.29 µM) | > 64 µg/mL | –
CC(=O)OCCCNC(=O)c1c(-c2cc3cc(Cl)ccc3[nH]2)[nH]c2cc(Br)ccc12 [Compound 183, 3-(6-Bromo-5′-chloro-1H,1′H-[2,2′-biindole]-3-carboxamido)propyl Acetate] | > 64 µg/mL | – | – | > 64 µg/mL | < 100 nM
O=C(Nc1ccc(Cl)c(Cl)c1)Nc1nc2cc(Br)ccc2s1 [Compound 155, 1-(5-bromobenzo[d]thiazol-2-yl)-3-(3,4-dichlorophenyl)urea] | 0.5 µg/mL (≈ 1.2 µM) | 0.5 µg/mL (≈ 1.2 µM) | 0.5 µg/mL (≈ 1.2 µM) | > 64 µg/mL | –
C[N+](C)(C)CCCNC(=O)c1c(-c2cc3cc(Cl)ccc3[nH]2)[nH]c2cc(Br)ccc12 [Compound 147, 3-(6-bromo-5′-chloro-1H,1′H-[2,2′-biindole]-3-carboxamido)-N,N,N-trimethylpropan-1-aminium] | 16 µg/mL | 16 µg/mL | 16 µg/mL | > 64 µg/mL | < 100 nM
O=C(COc1cc2[nH]c(-c3cc4ccc(Br)cc4[nH]3)cc2cc1Cl)NCCO [Compound 192, 2-((6′-Bromo-5-chloro-1H,1′H-[2,2′-biindol]-6-yl)oxy)-N-(2-hydroxyethyl)acetamide] | > 64 µg/mL | – | – | > 64 µg/mL | < 100 nM
CN1CCN(CCNC(=O)COc2cc3[nH]c(-c4cc5ccc(Br)cc5[nH]4)cc3cc2Cl)C(c2ccccc2)C1 (centres unmarked) [Compound 194, 2-((6′-Bromo-5-chloro-1H,1′H-[2,2′-biindol]-6-yl)oxy)-N-(2-(4-methyl-2-phenylpiperazin-1-yl)ethyl)acetamide] | > 64 µg/mL | – | – | > 64 µg/mL | –
CN(C)CCNC(=O)COc1cc2[nH]c(-c3cc4ccc(Br)cc4[nH]3)cc2cc1Cl [Compound 189, 2-((6′-Bromo-5-chloro-1H,1′H-[2,2′-biindol]-6-yl)oxy)-N-(2-(dimethylamino)ethyl)acetamide] | > 64 µg/mL | – | – | > 64 µg/mL | < 100 nM
O=C(O)CNC(=O)c1c(-c2cc3cc(Cl)ccc3[nH]2)[nH]c2cc(Br)ccc12 [Compound 204, (6-Bromo-5′-chloro-1H,1′H-[2,2′-biindole]-3-carbonyl)glycine] | 64 µg/mL (≈ 143 µM) | – | – | > 64 µg/mL | < 100 nM
NC(=O)N1CCC(NCCNC(=O)c2c(-c3cc4cc(Cl)ccc4[nH]3)[nH]c3cc(Br)ccc23)CC1 [Compound 131, 6-bromo-N-(2-(1-carbamoylpiperidin-4-ylamino)ethyl)-5′-chloro-1H,1′H-2,2′-biindole-3-carboxamide] | > 64 µg/mL | – | – | 64 µg/mL (≈ 115 µM) | –
O=C(COc1cc2[nH]c(-c3cc4ccc(Br)cc4[nH]3)cc2cc1Cl)NS(=O)(=O)c1ccc(NC(=O)C(F)(F)F)cc1 [Compound 195, N-(4-(N-(2-((6′-Bromo-5-chloro-1H, 1′H-[2,2′-biindol]-6-yl)oxy)acetyl)sulfamoyl)phenyl)-2,2,2-trifluoroacetamide] | 64 µg/mL (≈ 95.5 µM) | 64 µg/mL (≈ 95.5 µM) | – | > 64 µg/mL | < 100 nM
Brc1ccc2cc(-c3nc4ncc(Br)cc4[nH]3)[nH]c2c1 [Compound 210, 6-Bromo-2-(6-bromo-1H-indol-2-yl)-1H-imidazo[4,5-b]pyridine] | > 64 µg/mL | – | – | > 64 µg/mL | –
NC(=O)[C@@H]1CCCN1CCNC(=O)c1c(-c2cc3cc(Cl)ccc3[nH]2)[nH]c2cc(Br)ccc12 [Compound 120, (S)-6-Bromo-N-(2-(2-carbamoylpyrrolidin-1-yl)ethyl)-5′-chloro-1H,1′H-[2,2′-biindole]-3-carboxamide] | > 64 µg/mL | – | – | > 64 µg/mL | < 100 nM
O=C(O)Cn1c(-c2cc3ccc(Br)cc3[nH]2)nc2cc(Cl)c(Cl)cc21 [Compound 213, 2-(2-(6-Bromo-1H-indol-2-yl)-5,6-dichloro-1H-benzo[d]imidazol-1-yl)acetic Acid] | > 64 µg/mL | – | – | > 64 µg/mL | –
COC(=O)c1c(NC(=O)Nc2ccc(Cl)cc2)[nH]c2cc(Br)ccc12 [Compound 181, Methyl 6-bromo-2-(3-(4-chlorophenyl)ureido)-1 H-indole-3-carboxylate] | > 64 µg/mL | – | – | > 64 µg/mL | –
COC(=O)COc1cc2[nH]c(-c3cc4ccc(Br)cc4[nH]3)cc2cc1Cl [Compound 188, Methyl 2-((6′-bromo-5-chloro-1H,1′H-[2,2′-biindol]-6-yl)oxy)acetate] | > 64 µg/mL | – | – | > 64 µg/mL | < 100 nM
CN(C)CCn1c(-c2cc3ccc(Br)cc3[nH]2)nc2cc(Cl)c(Cl)cc21 [Compound 212, 2-(2-(6-Bromo-1H-indol-2-yl)-5,6-dichloro-1H-benzo[d]imidazol-1-yl)-N,N-dimethylethan-1-amine] | > 64 µg/mL | – | – | > 64 µg/mL | –
